The values that follow come from US20250282723A1, “AMYLOID TARGETING AGENTS AND METHODS OF USING THE SAME” (The Regents of the University of California, priority 2021, published 2025).

Data set [1] has as its target T1, aggregated αS (Homo sapiens, UniProt P37840).
T1 construct: made in house; host or cells: E. coli BL21 (plasmid pET5α aSynWT)
As to the kind of experiment: Fluorescence emission and fluorescence enhancement of probes bound versus unbound to aggregated αS. Type of data set: binding. The conditions noted are these: probes of FIG. 14; for Emmax (with αS) / FI with αS: aggregated αS 5 μM, probe 4 μM; for Emmax (with αS): 5% DMSO in nanopure water; for FI with αS: fold increase of fluorescence, bound vs unbound; for FI αS/Aβ: selectivity of fluorescence response to αS fibrils over Aβ fibrils. As for the experimental part: (§1) Expression and purification of recombinant α-synuclein was followed as reported previously.^32 Briefly, α-synuclein was purified from BL21 E. coli as described: A starter culture of transformed bacteria (pET5α aSynWT) (LB broth with ampicillin [final concentration: 100 μg/mL]) was incubated overnight. Following incubation, 25 mL of the started culture was added to a 500 mL mixture of LB broth and ampicillin. Protein expression was induced by addition of IPTG [0.119 g/500 mL] when an OD600 between 0.5-0.8 was achieved. After 4 h, flasks were centrifuged (5,000×g for 20 min) and the supernatant was removed. The pellets were then re-suspended in 20 mM Tris, 25 mM NaCl, 1 mM EDTA, pH 8.0, transferred into a flask, boiled for 1-2 minutes in a microwave, and boiled in a water bath (90° C.) for 30 minutes. Samples were then centrifuged (18,000×g for 30 min) and the supernatant was collected and filtered through a 0.2 μm filter. α-synuclein protein was further purified using 2×5 ml HiTrapQ HP anion exchange columns (GE, #17-1153-01) followed by Size Exclusion Column (Superdex 200, #28-9893-35). Pure α-synuclein determined by Coomassie and western blot were lyophilized and stored at −80° C. until use.
(§2) Aggregation of purified α-synuclein was followed as reported previously.^33 The lyophilized powder was dissolved to a final concentration of 100 μM in sodium phosphate buffer (50 mM, pH 7.4) with 0.1 mM EDTA and 0.02% sodium azide (w/v) and was aggregated at 37° C. with shaking at 500 rpm for 3 weeks. Fibrillization was confirmed by SDS-PAGE gel and standard ThT assay.
Aggregated αS or Aβ(1-42) at a final concentration of 5 μM (based on the molecular weight of monomer) was mixed with each fluorescent probe at a final concentration of 4 μM in 5% DMSO in nanopure water. The solution (80 μL total volume) was transferred to a black opaque 96 well plate and the fluorescence excitation and emission were read using a microplate reader. For emission fluorescence enhancement, the relative fluorescence enhancement of the bound versus unbound state was estimated by comparing the fluorescence intensity at λmax of the amyloid-bound state.

Data set [2] addresses T1, aggregated αS. The experiment in a line: Estimation of binding constant (Kd) to aggregated αS. The settings on record: probes of FIG. 14; aggregated αS 5 μM, increasing concentration of probe, 5% DMSO in nanopure water. As for the experimental part: as §1, §2
Aggregated Aβ(1-42) or αS at a final concentration of 5 μM (based on the molecular weight of the monomer) was mixed with an increasing concentration of each probe in 5% DMSO in nanopure water. Kd's were calculated as previously described.^34 The measurements for each probe were repeated in technical triplicates and the averages are shown with standard deviations. Kd's for probes 1-3 with aggregated Aβ(1-42) have been reported previously.^31

Broadly, the Kd is the concentration at which binding is half-saturated.

Consider `CCC1CCCCN1c1ccc2cc(/C=C(\C#N)C(=O)NCCOCCOCCOC)ccc2c1` (racemic) [Compound 5, (E)-2-cyano-3-(6-(2-ethylpiperidin-1-yl)naphthalen-2-yl)-N-(2-(2-(2-methoxyethoxy)ethoxy)ethyl)acrylamide], for which, at aggregated αS [1], the “Emmax (with αS)” value is reported as 534 nm, the “FI with αS” value amounted to 4.6 ± 0.7 and the “FI αS/Aβ” value was 3.8. Moreover, the Kd on aggregated αS [2] was 5.8 ± 1.8 µM.

For the compound `COCCOCCOCCNC(=O)/C(C#N)=C/c1ccc2cc(N3CCCCC3C)ccc2c1` (racemic) [Compound 4, (E)-2-cyano-N-(2-(2-(2-methoxyethoxy)ethoxy)ethyl)-3-(6-(2-methylpiperidin-1-yl)naphthalen-2-yl)acrylamide], on aggregated αS [1], the “Emmax (with αS)” value amounted to 531 nm, the “FI with αS” value is given as 3.8 ± 0.4 and the “FI αS/Aβ” value was determined as 2.0. At aggregated αS [2], the Kd was 4.5 ± 1.6 µM.

With `COCCOCCOCCNC(=O)C(C#N)=Cc1ccc2cc(N3CCCCC3)ccc2c1` (mixture of isomers) [Compound 1], at aggregated αS [1], the “Emmax (with αS)” value came to 539 nm, the “FI with αS” value is given as 3.0 ± 0.5 and the “FI αS/Aβ” value was 1.4. At aggregated αS [2], the dissociation constant (Kd) was 3.9 ± 3.9 µM.
